Experimental findings from PubChem BioAssay (NCI) are described below.

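Following 48 hours of exposure in 96-well plates, responses at five concentrations were used to interpolate endpoints linearly. The concentration for 50% growth inhibition is given as GI50. TGI: concentration producing complete growth inhibition.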

Common to all, as to experiment: NCI tumour cell line growth inhibition, 48 h
The test system of test [1] is RXF-631 renal.
Test [2] has as its system SNB-78 CNS.
In test [3] the test system is M19-MEL melanoma.
For test [4], the system named is DMS 273 small cell lung.
For test [5], the system named is DLD-1 colon.
Test [6] relates to XF 498 CNS.
In test [7] the test system is DMS 114 small cell lung.
Test [8] deals with HOP-18 NSCLC.
For test [9], the system named is MDA-N.
Test [10] has as its system P388/ADR leukemia.
For test [11], the system named is SN12K1 renal.

Regarding `O=C(NC1C2CC3CC(C2)CC1C3)c1cc(/C=C/c2ccccc2)[nH]c(=S)n1` (configuration not stated), the TGI in test [1], in test [2], in [3], in test [4], in test [5] and in [6] was greater than 100 µM throughout. For the same compound, the TGI in [7] is greater than 100 µM.

For the compound `COc1ccc2oc(C(=O)O)c3c2c1CCC3`, the TGI in test [2], in test [3], in [4], in [5], in test [6] and in [7] was greater than 100 µM throughout. The same compound had a TGI in [8] greater than 100 µM.

In the case of `O=S(O)CCCSSc1ccccc1`, the TGI is greater than 100 µM in test [2]; greater than 100 µM in [3]; greater than 100 µM in test [4]; greater than 100 µM in [5]; greater than 100 µM in test [6]; 67.6 µM in test [7]. Also, the TGI in test [8] is greater than 100 µM.

`NC1=NCCN1CC(=O)O` registered a TGI in test [9] greater than 10000 µM.

For the compound `CC1=C[P+](Cc2ccccc2)(c2ccccc2)CC1` (configuration not stated), the TGI in test [2] is greater than 100 µM; in test [3] it was greater than 100 µM; in test [4], greater than 100 µM; in [5], greater than 100 µM; in test [6], 78.2 µM; in test [7], greater than 100 µM. For the same compound, in test [8], the TGI is greater than 100 µM. For the same compound, the GI50 in [6] is 25 µM.

As for `O=C1CC(O)(c2ccccc2)C(c2ccccc2)=C1c1ccccc1` (configuration not stated), the TGI in test [2] was greater than 100 µM; in test [3] it was 91.4 µM; in test [4] it was greater than 100 µM; in [5], greater than 100 µM; in test [6], 73.5 µM; in test [7], 89.8 µM.

With `CCOc1ccccc1NC(=O)CCc1n[nH]c(=S)o1`, the TGI in test [2], in test [3], in test [4], in [5] and in test [6] was greater than 100 µM throughout.

In the case of `O=C1c2ccccc2C(=O)N1C/C=C/CO`, the TGI in test [2], in test [3], in [4], in test [5], in test [7] and in test [8] was greater than 100 µM each time.

With `CCC[CH2][Sn]1([CH2]CCC)[O]C(=O)c2ccc(C)cc2[O]1`, the GI50 in [1] was 138 nM; in [2], 526 nM; in test [3], 322 nM; in test [4], 550 nM; in [5], 658 nM; in test [7] it was 210 nM. Also, the GI50 in test [8] was 1010 nM. In addition, the TGI in test [1] stood at 0.32 µM; in [2], 2.34 µM; in [3], 1.33 µM; in test [4], 2.62 µM; in test [5], 1.98 µM; in test [7] it was 0.587 µM. Further, in test [8], the TGI was found to be 2.19 µM.

`COc1ccc(OC)c(-c2cc(=O)c3c(OC)c(OC)c(OC)c(OC)c3o2)c1`: the TGI in [9] was greater than 100 µM.

In the case of `COc1cc2c(cc1OC)C(=O)Cc1ccc(OC)c(OC)c1CN(C)CC2`, the TGI in test [1], in test [2], in [3], in [4], in test [5] and in [6] was greater than 100 µM throughout. Further, the TGI in [7] and in test [8] was greater than 100 µM each time.

For `CC[C@@]1(O)C(=O)OCc2c1cc1n(c2=O)Cc2c-1nc1cc3c(cc1c2C)OCO3`, the TGI in test [9] was greater than 100 µM.

In the case of `CCOC(=O)C(C)(C)C(O)C(C)C` (configuration not stated), the TGI in [9] is greater than 100 µM.

Take `Clc1cc2n[se]nc2cc1Cl`: the TGI in test [1], in test [2], in test [3], in test [4], in test [5] and in test [6] was greater than 100 µM each time. The TGI in test [7] and in test [8] was greater than 100 µM each time.

Consider `CC[C@@H]1C[C@H]2CC3c4[nH]c5ccc(O)cc5c4CCN(C2)C31`, for which the TGI in test [1], in test [2], in test [3], in test [4], in [6] and in test [7] was greater than 100 µM each time. In test [8], this compound registered a TGI greater than 100 µM.

`COc1cc(O)c2c(c1)C(=O)c1cc3c(c(O)c1C2=O)C(OC1OC(C)C(O)C(O)C1OC)C(OC)C(C)(O)C3=O` (configuration not stated): the TGI was determined as 16.1 µM in [2]; 1.83 µM in test [3]; 3.85 µM in test [4]; 11.6 µM in test [5]; 59.6 µM in [10]; 7.13 µM in [6]. In addition, the values for the TGI in test [7], in [11] and in test [8] were 5.24 µM, 7.14 µM and 15.4 µM, respectively.

Consider `CCCCCCCCCCCCCCCCOP(=O)(O)OP(=O)(O)OCC1OC(n2ccc(N)nc2=O)C(O)C1O` (configuration not stated), for which the TGI in test [9] is greater than 100 µM.
